In ChEMBL document CHEMBL5052842, “Pharmaceutical compounds and their use as inhibitors of ubiquitin specific protease 19 (usp19)” (2020):

Molecular target: T1, Ubiquitin carboxyl-terminal hydrolase 19 (Homo sapiens, UniProt O94966)
T1 sequence (O94966 whole entry): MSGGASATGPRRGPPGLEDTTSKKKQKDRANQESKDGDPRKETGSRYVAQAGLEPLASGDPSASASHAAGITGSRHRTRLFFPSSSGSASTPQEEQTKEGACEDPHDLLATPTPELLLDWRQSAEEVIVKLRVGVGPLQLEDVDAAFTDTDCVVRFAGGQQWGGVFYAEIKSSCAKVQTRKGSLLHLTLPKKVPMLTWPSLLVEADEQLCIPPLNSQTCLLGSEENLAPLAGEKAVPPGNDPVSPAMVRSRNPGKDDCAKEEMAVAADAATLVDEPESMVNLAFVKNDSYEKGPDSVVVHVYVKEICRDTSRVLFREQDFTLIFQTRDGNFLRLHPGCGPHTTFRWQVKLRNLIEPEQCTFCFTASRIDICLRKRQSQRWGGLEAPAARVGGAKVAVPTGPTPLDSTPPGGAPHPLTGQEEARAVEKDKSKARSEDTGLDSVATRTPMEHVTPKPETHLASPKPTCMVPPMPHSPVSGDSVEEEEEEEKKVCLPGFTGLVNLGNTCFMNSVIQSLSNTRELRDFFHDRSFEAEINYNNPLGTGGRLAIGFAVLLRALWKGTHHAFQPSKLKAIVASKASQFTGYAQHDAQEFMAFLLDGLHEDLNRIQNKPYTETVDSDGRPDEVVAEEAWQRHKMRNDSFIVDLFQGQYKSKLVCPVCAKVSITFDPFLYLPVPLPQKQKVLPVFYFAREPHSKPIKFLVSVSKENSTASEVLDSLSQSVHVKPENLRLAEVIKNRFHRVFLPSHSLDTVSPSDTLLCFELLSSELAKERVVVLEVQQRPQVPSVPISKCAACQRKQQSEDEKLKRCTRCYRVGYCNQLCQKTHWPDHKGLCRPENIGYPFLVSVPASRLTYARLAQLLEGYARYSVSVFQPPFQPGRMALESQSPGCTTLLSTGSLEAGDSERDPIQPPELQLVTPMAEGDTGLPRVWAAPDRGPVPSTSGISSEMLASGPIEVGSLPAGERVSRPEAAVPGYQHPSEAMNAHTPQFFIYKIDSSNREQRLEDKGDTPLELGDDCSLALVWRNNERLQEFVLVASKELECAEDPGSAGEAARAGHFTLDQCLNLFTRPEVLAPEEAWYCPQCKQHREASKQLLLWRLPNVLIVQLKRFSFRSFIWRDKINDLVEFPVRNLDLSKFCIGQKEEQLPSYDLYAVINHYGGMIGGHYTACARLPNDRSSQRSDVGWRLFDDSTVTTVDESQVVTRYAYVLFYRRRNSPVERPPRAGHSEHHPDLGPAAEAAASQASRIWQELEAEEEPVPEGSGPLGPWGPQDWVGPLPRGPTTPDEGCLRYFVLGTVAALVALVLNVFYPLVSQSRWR
Assay: Inhibition of C-terminal His6-tagged recombinant human USP19 using iso-peptide ubiquitin-Lys-TAMRA as substrate incubated for 30 mins and measured after 90 mins by fluorescent polarization assay

Row | SMILES | IC50 [nM]
1 | O=C(N1CC[C@@](O)(Cn2ccc(C3CC3)cc2=O)C2(CCCC2)C1)N1CCNC[C@H]1c1ccccc1 | < 500
2 | O=C(N1CCC(O)(Cn2cc(F)c(-c3ccccc3)cc2=O)C2(CCCC2)C1)N1CCNC[C@H]1c1ccccc1 (stereo partly drawn) | < 500
3 | Cn1cc(-c2ccn(C[C@]3(O)CCN(C(=O)N4CCNC[C@H]4c4ccccc4)CC34CCCC4)c(=O)c2)cn1 | < 500
4 | O=C(N1CCC(O)(Cn2cnc(-c3ccccc3)cc2=O)C2(CCOCC2)C1)N1CCOC[C@H]1c1ccccc1 (stereo partly drawn) | < 500
5 | CC1(C)CN(C(=O)N2CCNC[C@H]2c2ccccc2)CC[C@@]1(O)Cn1ccc(-c2ccccc2)cc1=O | < 500
6 | COc1cccc(-c2cc(=O)n(C[C@]3(O)CCN(C(=O)N4CCNC[C@H]4c4ccccc4)CC34CCCC4)cn2)c1 | < 500
7 | CC1(C)CN(C(=O)N2CCOC[C@H]2c2ccccc2)CC[C@@]1(O)Cn1cnc(-c2ccccc2)cc1=O | < 500
8 | O=C(NCc1ccc(F)c(F)c1)N1CC[C@@](O)(Cn2cnc(-c3ccccc3)cc2=O)C2(CCCC2)C1 | < 500
9 | O=C(N1CCC(O)(Cn2cnc(-c3ccccc3)cc2=O)C2(CCCC2)C1)N1CCOCC1c1cccs1 (stereo not drawn) | < 500
10 | Cn1cc(-c2cc(=O)n(C[C@]3(O)CCN(C(=O)N4CCOC[C@H]4c4ccc(F)cc4)CC34CCCC4)cn2)cn1 | < 500
11 | O=C(N1CC[C@@](O)(Cn2ccc(N3CCCC3)cc2=O)C2(CCCC2)C1)N1CCNC[C@H]1c1ccccc1 | < 500
12 | CN(C)c1cc(=O)n(C[C@]2(O)CCN(C(=O)N3CCOC[C@H]3c3ccccc3)CC23CCCC3)cn1 | < 500
13 | Cn1cc(-c2cc(=O)n(C[C@]3(O)CCN(C(=O)N4CCNC[C@H]4c4ccccc4)CC34CCCC4)cn2)cn1 | < 500
14 | O=C(N1CCC(O)(Cn2cnc(-c3ccccc3)cc2=O)C2(CCCCC2)C1)N1CCOC[C@H]1c1ccccc1 (stereo partly drawn) | < 500
15 | O=C(N[C@H](c1ccccc1)C(F)(F)F)N1CC[C@@](O)(Cn2ccc(-c3ccccc3)cc2=O)C2(CCCC2)C1 | < 500
16 | O=C(N1CC[C@@](O)(Cn2cnc(Cl)cc2=O)C2(CCCC2)C1)N1CCOC[C@H]1c1ccc(F)cc1 | < 500
17 | N=S1(=O)CCN(C(=O)N2CC[C@@](O)(Cn3cnc(-c4ccccc4)cc3=O)C3(CCCC3)C2)C(c2ccccc2)C1 (stereo partly drawn) | < 500
18 | CNc1cc(=O)n(C[C@]2(O)CCN(C(=O)N3CCNC[C@H]3c3ccccc3)CC23CCCC3)cn1 | < 500
19 | O=C(N1CC[C@@](O)(Cn2cnc(-c3ccc(F)cc3)cc2=O)C2(CCCC2)C1)N1CCNC[C@H]1c1ccccc1 | < 500
20 | Cn1nccc1-c1cc(=O)n(C[C@]2(O)CCN(C(=O)N3CCOC[C@H]3c3ccc(F)cc3)CC23CCCC3)cn1 | < 500
21 | O=C(N1CC[C@@](O)(Cn2cnc(-c3ccccc3)cc2=O)C2(CCCC2)C1)N1CCOC[C@H]1c1ccc(F)cc1 | < 500

Row | SMILES | IC50 [nM]
22 | CC1(C)CN(C(=O)N2CCOC[C@H]2c2ccccc2)CC[C@@]1(O)Cn1ccc(-c2ccccc2)cc1=O | < 500
23 | O=C(N1CC[C@@](O)(Cn2cnc(-c3ccccc3F)cc2=O)C2(CCCC2)C1)N1CCNC[C@H]1c1ccccc1 | < 500
24 | O=C(N1CC[C@@](O)(Cn2cnc(-c3ccccc3)cc2=O)C2(CCCC2)C1)N1CCNCC1c1ccc(C(F)(F)F)cc1 (stereo partly drawn) | < 500
25 | CC1(C)CN(C(=O)N2CCNC[C@H]2c2ccccc2)CC[C@@]1(O)Cn1cnc(-c2ccccc2)cc1=O | < 500
26 | O=C(N1CC[C@@](O)(Cn2cnc(C3CC3)cc2=O)C2(CCCC2)C1)N1CCNC[C@H]1c1ccccc1 | < 500
27 | COc1ccccc1-c1cc(=O)n(C[C@]2(O)CCN(C(=O)N3CCNC[C@H]3c3ccccc3)CC23CCCC3)cn1 | < 500
28 | O=C(N1CC[C@@](O)(Cn2cnc(N3CCCC3)cc2=O)C2(CCCC2)C1)N1CCNC[C@H]1c1ccccc1 | < 500
29 | O=C(N1CC[C@@](O)(Cn2ccc(-c3ccccc3)cc2=O)C2(CCCC2)C1)N1CCNC[C@H]1c1ccccc1 | < 500
30 | O=C(N1CC[C@@](O)(Cn2cnc(-c3ccccc3)cc2=O)C2(CCCC2)C1)N1CCS(=O)(=O)CC1c1ccccc1 (stereo partly drawn) | < 500
31 | CN(C)C(=O)c1cn(C[C@]2(O)CCN(C(=O)N3CCOC[C@H]3c3ccccc3)CC2(C)C)c(=O)cc1-c1ccccc1 | < 500
32 | Cc1cc(=O)n(C[C@]2(O)CCN(C(=O)N3CCNC[C@H]3c3ccccc3)CC23CCCC3)cn1 | < 500
33 | CN1CCN(C(=O)N2CC[C@@](O)(Cn3cnc(-c4ccccc4)cc3=O)C3(CCCC3)C2)[C@H](c2ccccc2)C1 | < 500
34 | O=C(N1CC[C@@](O)(Cn2cnc(-c3ccccc3)cc2=O)C2(CCCC2)C1)N1CCNCC1c1ccsc1 (stereo partly drawn) | < 500
35 | O=C(N1CC[C@@](O)(Cn2cnc(N3CCCC3)cc2=O)C2(CCCC2)C1)N1CCOC[C@H]1c1ccccc1 | < 500
36 | O=C(N1CC[C@@](O)(Cn2cnc(-c3ccccc3)cc2=O)C2(CCCC2)C1)N1CCNC[C@H]1c1ccccc1 | < 500
37 | O=C(N1CC[C@@](O)(Cn2cnc(C3CC3)cc2=O)C2(CCCC2)C1)N1CCOC[C@H]1c1ccccc1 | < 500
38 | O=C(N[C@H](c1ccccc1)C(F)(F)F)N1CC[C@@](O)(Cn2cnc(-c3ccccc3)cc2=O)C2(CCCC2)C1 | < 500
39 | Cn1nccc1-c1ccn(C[C@]2(O)CCN(C(=O)N3CCNC[C@H]3c3ccccc3)CC23CCCC3)c(=O)c1 | < 500
40 | O=C(N1CCC(O)(Cn2cnc(-c3ccccc3)cc2=O)C2(CCC2)C1)N1CCNC[C@H]1c1ccccc1 (stereo partly drawn) | < 500
41 | O=C(NCc1c(F)cccc1F)N1CC[C@@](O)(Cn2cnc(-c3ccccc3)cc2=O)C2(CCCC2)C1 | < 500
42 | O=C(N1CCC(O)(Cn2cnc(-c3ccccc3)cc2=O)C2(CCC2)C1)N1CCOC[C@H]1c1ccccc1 (stereo partly drawn) | < 500

Row | SMILES | IC50 [nM]
43 | Cn1cc(-c2cc(=O)n(C[C@]3(O)CCN(C(=O)N4CCOC[C@H]4c4ccccc4)CC34CCCC4)cn2)cn1 | < 500
44 | CN(C)c1ccc(-c2cc(=O)n(C[C@]3(O)CCN(C(=O)N4CCNC[C@H]4c4ccccc4)CC34CCCC4)cn2)cc1 | < 500
45 | O=C(N1CCC(O)(Cn2ncc(-c3ccccc3)cc2=O)C2(CCCC2)C1)N1CCOC[C@H]1c1ccccc1 (stereo partly drawn) | < 500
46 | O=C(NCc1ccccc1F)N1CCC(O)(Cn2cnc(-c3ccccc3)cc2=O)C2(CCCC2)C1 (stereo not drawn) | < 500
47 | Cc1cccc(-c2cc(=O)n(C[C@]3(O)CCN(C(=O)N4CCNC[C@H]4c4ccccc4)CC34CCCC4)cn2)c1 | < 500
48 | O=C(N1CC[C@@](O)(Cn2cnc(-c3ccccc3)cc2=O)C2(CCCC2)C1)N1CCSCC1c1ccccc1 (stereo partly drawn) | < 500
49 | O=C(N1CC[C@@](O)(Cn2cnc(-c3ccccc3)cc2=O)C2(CCCC2)C1)N1CCN(CC(F)(F)F)C[C@H]1c1ccccc1 | < 500
50 | O=C(N1CC[C@@](O)(Cn2cnc(-c3ccccc3)cc2=O)C2(CCOCC2)C1)N1CCNC[C@H]1c1ccccc1 | < 500
51 | O=C(N1CC[C@@](O)(Cn2cnc(-c3ccccc3)cc2=O)C2(CCCC2)C1)N1CCNC[C@H]1c1cccc(F)c1 | < 500
52 | O=C(N1CCC(O)(Cn2cnc(-c3ccccc3)cc2=O)C2(CCCCC2)C1)N1CCNC[C@H]1c1ccccc1 (stereo partly drawn) | < 500
53 | Cc1ccccc1-c1cc(=O)n(C[C@]2(O)CCN(C(=O)N3CCNC[C@H]3c3ccccc3)CC23CCCC3)cn1 | < 500
54 | O=C(N1CCC(O)(Cn2cnc(-c3ccccc3)cc2=O)CC1)N1CCNC[C@H]1c1ccccc1 | < 500
55 | Cn1nccc1-c1cc(=O)n(C[C@]2(O)CCN(C(=O)N3CCNC[C@H]3c3ccccc3)CC23CCCC3)cn1 | < 500
56 | O=C(N1CC[C@@](O)(Cn2cnc(-c3cccc(F)c3)cc2=O)C2(CCCC2)C1)N1CCNC[C@H]1c1ccccc1 | < 500
57 | O=C(N1CC[C@@](O)(Cn2ccc(Cl)cc2=O)C2(CCCC2)C1)N1CCNC[C@H]1c1ccccc1 | < 500
58 | COc1cc(=O)n(C[C@]2(O)CCN(C(=O)N3CCNC[C@H]3c3ccccc3)CC23CCCC3)cn1 | < 500
59 | O=C(NCc1cccc(F)c1F)N1CC[C@@](O)(Cn2cnc(-c3ccccc3)cc2=O)C2(CCCC2)C1 | < 500
60 | Cn1nccc1-c1cc(=O)n(C[C@]2(O)CCN(C(=O)N3CCOC[C@H]3c3ccccc3)CC23CCCC3)cn1 | < 500
61 | O=C(NCC1CC(F)(F)C1)N1CC[C@@](O)(Cn2cnc(-c3ccccc3)cc2=O)C2(CCCC2)C1 | < 500
62 | O=C(NCc1ccc(F)cc1F)N1CC[C@@](O)(Cn2cnc(-c3ccccc3)cc2=O)C2(CCCC2)C1 | < 500
63 | COc1ccc(-c2cc(=O)n(C[C@]3(O)CCN(C(=O)N4CCNC[C@H]4c4ccccc4)CC34CCCC4)cn2)cc1 | < 500
